The record followed here is patent US9567586B2, “EpCAM aptamer for detection of cancer stem cells” (DEAKIN UNIVERSITY, priority 2012, dated 2017).

The target in series [1] is T1, native EpCAM expressed on the cell surface (Homo sapiens, UniProt P16422).
T1 construct: host or cells: T47D, MCF7, MDA-MB-231, HT-29 (EpCAM-positive); U118MG (EpCAM-negative control)
T1 sequence (P16422 24-314): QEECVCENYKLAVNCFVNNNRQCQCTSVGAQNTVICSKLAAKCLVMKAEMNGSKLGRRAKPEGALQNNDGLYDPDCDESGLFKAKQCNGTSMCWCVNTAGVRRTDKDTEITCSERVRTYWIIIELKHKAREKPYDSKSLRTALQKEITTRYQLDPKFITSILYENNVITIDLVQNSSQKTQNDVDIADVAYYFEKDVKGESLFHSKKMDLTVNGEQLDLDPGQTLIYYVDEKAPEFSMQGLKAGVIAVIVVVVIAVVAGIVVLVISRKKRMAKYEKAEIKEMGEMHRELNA
The series is described as follows: Binding affinities of EpCAM aptamers by flow cytometry. The settings on record: read-out: KD (±SEM). As for the experimental part: (§1) Cells were harvested at 80% confluence with trypsin digestion and resuspended in washing buffer (DPBS with 5 mM MgCl2) and enumerated. Following centrifugation (1000×g for 5 min), the cell pellet was resuspended in assay buffer (DPBS supplemented with 5 mM MgCl2, 0.1 mg/ml tRNA, 0.1 mg/ml salmon sperm DNA, 0.2% [w/v] sodium azide, and 5% FCS) and diluted to 1×10^6/mL. The blocking step was carried out at 4′C. The binding of the aptamers was carried out at 37′C for 30 min or 4′C for 1 h, with the final concentration of magnesium chloride being 2.5 mM in all binding assays.
(§2) The equilibrium dissociation constant (K′d) of successful 2′-fluoropyrimidine RNA aptamer species to native EpCAM expressed on the cell surface was determined using flow cytometry with EpCAM-positive and -negative cell lines and a negative control (2-O-methyl-pyrimidine) aptamer (5′-DY647-mGCmGACUmGmGUUmACCCmGmGUCmGdT-3′) (SEQ ID NO:13). Kato III or U118MG cells (5×10^5) were first incubated with assay buffer followed by two washes with binding buffer prior to incubation with serial concentrations (approximately 10-fold above and below the apparent K′d) of FITC-labelled aptamer in a 100 μL assay buffer for 1 h on ice. The cells were washed three times, resuspended in 150 μL assay buffer containing 2.5 mM MgCl2 and subjected to flow cytometric analyses. The FITC-labelled unselected library was used as another negative control. The mean fluorescence intensity (MFI) of the unselected library was subtracted from that of the aptamer-target cell to generate the MFI of specific binding. The K′d for each aptamer was determined by Scatchard analysis according to the equation: [Bound aptamer]/[aptamer]=−(1/KD)×[bound aptamer]+([T]tol/KD) where [T]tot represents the total target concentration. Design and Generation of EpCAM Aptamer-siRNA Chimera
(§3) The binding affinities of both aptamers have been characterised against all five cell lines used in this study by flow cytometry, and the results are shown in Table 1.
Background: A flow cytometer gives signals particle by particle.

The test system of series [2] is native EpCAM expressed on the cell surface. The description is as above. The note with it: U118MG cells (EpCAM negative); read-out: KD (±SEM). Details: species or system human. How it is done: as §1, §2, §3

Like-named read-outs stand apart in the source and are kept apart here. A value given as a limit tells only on which side of the number the result lay.

By Kd is commonly meant the equilibrium constant for the complex coming apart. Take “5′-ACGUAUCCCUUUUCGCGUA-3′ (RNA aptamer, fluorescent dye conjugate used, modifications not given here, further chemistry not given here) [compound 23]”: the Kd in series [1] (HT29 cells) was 37 ± 23.6 nM; in series [1] (MCF7 cells), 63.7 ± 40.4 nM; in series [1] (MDA-MB-231 cells) it was 86.7 ± 68.5 nM; in series [1] (T47D cells), 41.2 ± 29.2 nM; in series [2], more than 1000 nM.
The like results for “5′-DY647-mGCmGACUmGmGUUmACCCmGmGUCmGdT-3′ (GCGACUGGUUACCCGGUCGN; 5' DY647, 2'-O-methyl, 3' dT, further chemistry not given here) [Control]” were, in that order, 837 ± 265 nM, more than 1000 nM, more than 1000 nM, more than 1000 nM and more than 1000 nM.
